The numbers were not newly measured in patent publication US9724304B2, “Nanospheres for therapeutic agent delivery” (Temple University—Of The Commonwealth System of Higher …, priority 2012, dated 2017), which cites them from elsewhere.

In brackets after ≈: the same amount, converted by molar mass.

For the series the following is noted: at 25° C.

Broadly, the aqueous solubility is the concentration that dissolves in the medium under given conditions. On to `CC1=C(/C=C/C(C)=C/C=C/C(C)=C/C(=O)O)C(C)(C)CCC1` [ATRA, All-trans retinoic acid], for which the aqueous solubility is 29 µg/mL (≈ 96.5 µM).
